# How the values were obtained:
# ERK 1/2 (p42 and p44) = assay: Erk 1/2 phosphorylation immunoblot in primary lens epithelial cells; assay type: cell-based, bovine; conditions: primary cells after dissection; 30 min 1 mM CA4P; immediately and 1 h after end of exposure (FIG. 7)
# Text: Bovine eyes were obtained from Coast and County Meat Group (Felling, UK) on the day of culling and lenses were dissected out of the eyes under a sterile tissue culture hood as described below. After generous dousing in 70% ethanol, eyes were cut open using a major surgical blade (Swann-Morton, UK) via a single cut, parallel and posterior to the cornea-conjunctiva limit. The eye was then inverted and the vitreous removed. The lens was freed from the ciliary fibers and immediately placed anterior face down in a SYLGARD-covered (Dow Corning, Germany) well of a 12-well tissue culture plate (Greiner Bio-One, UK). The posterior side of the lens capsule was cut in a Y-shape fashion by a thin scalpel and the resulting flaps pulled back and pinned onto the SYLGARD. […]
# Immediately after dissection, primary lens epithelial cells were exposed for 30 min to 1 mM CA4P diluted in 0% FCS medium, after which they were returned to 0% FCS-supplemented medium. […] After total protein quantification of the extracts by Bicinchoninic Acid (BCA) assay (ThermoScientific, UK), 20 μg of extract were loaded per lane of a 12% acrylamide denaturing gel, which was run at 200V for 40 min, followed by blotting onto a nitrocellulose membrane at 0.8 mA/cm^2 for 2 h and blocking in either milk (Erk 1/2) or BSA (GAPDH) in TTBS (0.2% Tween (vol/vol), 150 mM NaCl, 20 mM Tris.HCl pH 7.4) for 1 h at room temperature. […]
# [1] = test system: Primary bovine lens epithelial cells; assay: Primary bovine lens epithelial cells on the lens capsule, serum-free, continuous exposure: cell number and morphology; assay type: cell-based
# Description: Primary bovine lens epithelial cells were cultured in serum-free conditions, survival factors being released from the lens capsule. Paclitaxel or combretastatin A-4 phosphate was added to the culture to a final concentration of 10 nM, 100 nM or 10 μM. Cell number was determined for each capsule at 48 h and 96 h after addition of the test agent. Two capsules were taken per treatment and cell numbers averaged after being expressed as a percentage of 48 h value. This indicates the increase/decrease in cell number within a 48 h time period (i.e. from 48 h to 96 h), normalized as a percentage. Independent T-test P value between CA4P control and 10 μM is 0.0002.
# By light microscopy, CA4P has a dramatic effect upon cell morphology, retaining the cobblestone characteristic of the lens epithelium, when in the control cultures the lens cells have begun to trans-differentiate actinsm/desmin positive cells and migrate off the capsule. Pictures were taken from live primary bovine cells on the lens capsule with FujiFinepix (FIG. 3).
# phospho-Erk in BIE cells = assay: Erk phosphorylation immunoblot in BIE cells; assay type: cell-based, bovine
# Description: Phospho-Erk ½ levels were elevated immediately after the end of CA4P exposure in both control and treated cells and decreased 1 h after the end of CA4P exposure in both control and treated cells (FIG. 7). […] Therefore, it could be hypothesized that, in primary cells, a general stress response due to dissection will mask CA4P's effect on Erk phosphorylation. Phosphorylated p38 and JNK levels were not affected by CA4P treatment (data not shown).
structure (smiles),measurement,setting,value
"COc1ccc(/C=C\c2cc(OC)c(OC)c(OC)c2)cc1OP(=O)(O)O [CA4P, combretastatin A-4 phosphate]",Erk phosphorylation,ERK 1/2 (p42 and p44),not affected
same,"decline in cell number, compared with paclitaxel","[1]; 10 nM, 100 nM or 10 μM, cell number at 48 h and 96 h, over a 96 hour exposure (FIG. 1, FIG. 2)",more effective than paclitaxel at inducing a decline in cell number
same,cell morphology by light microscopy,"[1]; CA4P 10 μM, live primary bovine cells on the lens capsule, 48 and 96 h (FIG. 3)",show only epithelial sheets with the typical cobblestone appearance of the lens epithelium
same,phospho-Erk levels,phospho-Erk in BIE cells; 1 h after the end of CA4P exposure,returned to control levels
same,phospho-Erk levels,phospho-Erk in BIE cells; immediately after the end of CA4P exposure,elevated
